Legend:
Assay type in all cases: cell-based, human
[1] = test system: NSCLC cells (A549, H23, and H292); experiment: MTT cell viability assay, statements over all lung cancer lines; details: summary over A549, H23 and H292, 24 h
Protocol: (§1) The cell viability was assessed using an MTT assay, determining the half-maximal inhibitory concentration (IC50) to screen right-half RT analogs (DH_18, DH_21, DH_32, DH_35, DH_38, and DH_39). Human NSCLC cells (A549, H23, and H292) were seeded in a 96-well cell culture plate at a density of 1 × 10^4 cells per well and incubated for 24 h at 37 °C. Subsequently, the culture medium was aspirated, and a complete medium with varying concentrations (0–100 μM) of right-half RT analogs was added for 24 h. Following the removal of the compound-containing medium, an MTT reagent at a concentration of 4 mg/mL was applied and incubated for 3 h at 37 °C. The MTT reagent was replaced with 100 μL of DMSO to dissolve the formazan crystals. The measurement of the formazan product was conducted at 570 nm utilizing a microplate reader. RT served as the positive control in this experiment.

H292 cells = experiment: MTT cell viability assay; details: Homo sapiens, NCI-H292, H292, 24 h treatment
Protocol: as §1

H23 cells = experiment: MTT cell viability assay; details: Homo sapiens, NCI-H23, H23, 24 h treatment
Protocol: as §1

A549 cells = experiment: MTT cell viability assay; details: Homo sapiens, A549, 24 h treatment
Protocol: as §1

[2] = test system: CSC spheroids of A549, H23, and H292 cells; experiment: 3D CSC spheroid formation with immunofluorescence; details: 50 nM, 24 h, immunofluorescence
Protocol: A three-dimensional (3D) spheroid was employed to generate the spheroids containing CSC subpopulations from lung cancer cells. For CSC-rich population establishment, the spheroid culture assay used in this study was slightly modified from a previously described method. Lung cancer cells, specifically NSCLC cells (A549, H23, and H292), were seeded onto a 24-well ultra-low attachment plate, with approximately density of 2.5 × 10^3 cells per well in a medium with a 1% FBS and Nutristem mix. The primary spheroids were allowed to form for 7 days. Every 2 days, fresh medium with 1% FBS and Nutristem mix was replenished. On day 7 of primary spheroid culture, primary spheroids were resuspended into single cells using trypsin, and again 2.5 × 10^3 cells/well were seeded into a 24-well ultra-low attachment plate. Secondary spheroids were allowed to form for 10 days. After 10 days, the secondary spheroids were treated with 50 nM concentration DH_32 for 24 h treatment. The spheroids that had undergone treatment were retrieved through centrifugation at 1000× g for 30 s and then rinsed with PBS. The spheroids were fixed with 4% paraformaldehyde in a 50 μL PBS solution for 20 min at room temperature, and then they were made permeable by treating them with 0.1% Triton X in PBS for 5 min at room temperature. The spheroids were exposed to a mixture of 5% FBS and 2% BSA in PBS for 1 h at room temperature to prevent non-specific protein interactions. Subsequently, the spheroids were incubated with primary antibodies (CD133, CD44, and OCT4) at a 1:250 dilution in a 30 μL PBS solution containing 2.5% FBS and 1% BSA, and this incubation took place overnight at 4 °C. On the subsequent day, the spheroids were rinsed with PBS and then exposed to secondary antibodies (Alexa Fluor 594-conjugated goat anti-rabbit IgG (H+L) and Alexa Fluor 488-conjugated goat anti-mouse IgG (H+L)) at a 1:500 dilution in a 30 μL PBS solution containing 2.5% FBS and 1% BSA at room temperature for 1 h 30 min. These spheroids were subjected to staining with Hoechst 33342 (Sigma, St. Louis, MO, USA) at a concentration of 10 μg/mL for a duration of 15 min at room temperature. Subsequently, the fluorescence signals were observed using a fluorescence microscope (Olympus IX 51 with DP70; Olympus America Inc., Center Valley, PA, USA). The intensity of fluorescence was quantified using Image J software. NSCLC spheroids treated with RT at 50 nM and cisplatin at 50 nM served as the positive control.

Row | Compound | IC50 ([1]; Homo sapiens, 24 h) | IC50 [1] | IC50 (H292 cells) | IC50 (H23 cells) | IC50 (A549 cells) | levels of CD133, CD44, and OCT4 in CSC spheroids [2]
1 | COC1=C(C)C(=O)C2=C(C1=O)[C@@H]1CN(Cc3ccccn3)[C@@H](C#N)[C@H](C2)N1C [DH_18, (1R,4R,5S)-9-methoxy-8,11-dimethyl-7,10-dioxo-3-(pyridin-2-ylmethyl)-1,2,3,4,5,6,7,10-octahydro-1,5-epiminobenzo[d]azocine-4-carbonitrile] | 28 to 77 µM | ~30 µM | 29.5 ± 0.75 µM | 28.1 ± 0.83 µM | 28 ± 0.86 µM | –
2 | COC1=C(C)C(=O)C2=C(C1=O)[C@@H]1CN(Cc3cccnc3)[C@@H](C#N)[C@H](C2)N1C [DH_21, (1R,4R,5S)-9-methoxy-8,11-dimethyl-7,10-dioxo-3-(pyridin-3-ylmethyl)-1,2,3,4,5,6,7,10-octahydro-1,5-epiminobenzo[d]azocine-4-carbonitrile] | 28 to 77 µM | – | 54.1 ± 1.15 µM | 49.4 ± 1.01 µM | 51.4 ± 1.5 µM | –
3 | C#CCN1C[C@H]2C3=C(C[C@@H]([C@@H]1C#N)N2C)C(=O)C(C)=C(OC)C3=O [DH_35, (1R,4R,5S)-9-methoxy-8,11-dimethyl-7,10-dioxo-3-(prop-2-yn-1-yl)-1,2,3,4,5,6,7,10-octahydro-1,5-epiminobenzo[d]azocine-4-carbonitrile] | 28 to 77 µM | – | 57.7 ± 1.45 µM | 56 ± 1.78 µM | 76.3 ± 2.98 µM | –
4 | COC1=C(C)C(=O)C2=C(C1=O)[C@@H]1CN(CCO)[C@@H](C#N)[C@H](C2)N1C [DH_38, (1R,4R,5S)-3-(2-hydroxyethyl)-9-methoxy-8,11-dimethyl-7,10-dioxo-1,2,3,4,5,6,7,10-octahydro-1,5-epiminobenzo[d]azocine-4-carbonitrile] | 28 to 77 µM | – | 43.7 ± 0.86 µM | 50.4 ± 1.18 µM | 43.8 ± 1.43 µM | –
5 | COC1=C(C)C(=O)C2=C(C1=O)[C@@H]1CN(CCN3C(=O)c4ccccc4C3=O)[C@@H](C#N)[C@H](C2)N1C [DH_39, (1R,4R,5S)-3-(2-{1,3-dioxoisoindolin-2-yl}ethyl)-9-methoxy-8,11-dimethyl-7,10-dioxo-1,2,3,4,5,6,7,10-octahydro-1,5-epiminobenzo[d]azocine-4-carbonitrile] | 28 to 77 µM | – | 65.4 ± 1.13 µM | 73.3 ± 1.17 µM | 70 ± 0.85 µM | –
6 | N.N.[Cl][Pt][Cl] [cisplatin, reference compound] | – | – | – | – | – | could not alter CSC markers

Reference: PMC10744608, “Simplified Synthesis of Renieramycin T Derivatives to Target Cancer Stem Cells via β-Catenin Proteasomal Degradation in Human Lung Cancer” (Marine Drugs, 2023)
